Structures are written as SMILES.

The values that follow come from patent US7459471B2, “Inclusion compound comprising cucurbituril derivatives as host molecule and pharmaceutical composition comprising the same” (Postech Foundation, priority 2001, dated 2008).

Data set [1] has as its system XF-498 human CNS tumor cells. The data set is described as follows: SRB (sulforhodamine B) assay, antiproliferative activity, XF-498. Type of data set: cell-based. The procedure:
(§1) Anticancer activities of the inclusion compounds synthesized in Synthesis Examples 1 and 2 were measured as follows.
(§2) First, the oxaliplatin-cucurbitu[7]ril inclusion compounds synthesized in Synthesis Examples 1 and 2, were freeze-dried to prepare samples. Tumor cells used were A 549 (human non-small cell lung), SKOV-3 (human ovarian), SKMEL-2 (human melanoma), XF498 (human CNS), and HCT-15 (human colon), and analyzed by SRB (sulforhodamine B) assay.

The subject of data set [2] is A549 human non-small cell lung tumor cells. The data set is described as follows: SRB (sulforhodamine B) assay, antiproliferative activity, A549. Type of data set: cell-based. On the procedure:
as §1, §2

For data set [3], the system named is SKOV-3 human ovarian tumor cells. The data set is described as follows: SRB (sulforhodamine B) assay, antiproliferative activity, SKOV-3. It is filed as cell-based. The procedure:
as §1, §2

Data set [4] concerns SKMEL-2 human melanoma tumor cells. The data set is described as follows: SRB (sulforhodamine B) assay, antiproliferative activity, SKMEL-2. Type of data set: cell-based. On the procedure: as §1, §2
Data set [5] can be described thus: Isothermal microcalorimeter titration of oxaliplatin and cucurbitu[7]ril. Type of data set: physicochemical. The settings on record: 25° C., 20 mM oxaliplatin, 1 mM cucurbitu[7]ril.
The subject of data set [6] is HCT-15 human colon tumor cells. The data set is described as follows: SRB (sulforhodamine B) assay, antiproliferative activity, HCT-15. It is filed as cell-based. The procedure:
as §1, §2

Consider `N[C@@H]1CCCC[C@H]1N.O=C([O-])C(=O)[O-].[Pt+2]` (relative stereo) [Oxaliplatin, (trans-L-diaminocyclohexane)oxalatoplatinum (II)], for which the “Antiproliferative activity (ED50/μM)” value in data set [1] turned out to be 0.49 µM; in data set [2], 0.42 µM; in data set [3] it was 0.67 µM; in data set [4], 0.97 µM; in data set [6] it was 0.90 µM. Besides, in data set [5], the binding constant was 2.39×10^5(±0.4) M^−1. The molecule further came in with a binding enthalpy in data set [5] of -6.33 kcal/mol.

Consider `N.N.[Cl][Pt][Cl]` [Cisplatin], for which the “Antiproliferative activity (ED50/μM)” value in data set [1] was 0.46 µM; in data set [2], 1.17 µM; in data set [3] it was 2.87 µM; in data set [4], 3.08 µM; in data set [6] it was 1.32 µM.
